# Like-named read-outs stand apart in the source and are kept apart here.
# Columns and labels:
# [1] = Water-solubility of the cephalosporin antibiotic alone or combined with β-CyD-G2-COONa or β-CyD (Example 3, HPLC); format: physicochemical; details: cephalosporin antibiotic (free form) in water, with β-CyD-G2-COONa or β-CyD 1:2 (mol ratio), lyophilized powder 100 mg + water 1 ml, alone: shaken at 25 °C for 8 hours, read-out: solubilities of the antibiotic
# Description: (§1) The aqueous solution was added to the ethanol solution and mixed with it with stirring. The resulting solution was lyophilized in vacuo to give powder. Water (1 ml) was added to the powder (100 mg) to obtain a homogeneous aqueous solution, i.e., a composition of the present invention. On the other hand, the antibiotic alone was added to water, and the mixture was vigorously shaken at 25 °C for 8 hours and filtered through a membrane filter of 0.22 µm.
# The antibiotic in the above homogeneous aqueous solution and filtrate was determined by high performance liquid chromatography (HPLC). As a result, the solubilities in Table 3 were obtained.
# [2] = Water-solubility of the antineoplastic agent alone or combined with α-CyD-G2-COONa or α-CyD (Example 2, HPLC); format: physicochemical; details: 6-O-(N-chloroacetylcarbamoyl)fumagillol in water, with α-CyD-G2-COONa or α-CyD 1:2 (mol ratio), lyophilized powder 100 mg + water 1 ml, alone: shaken at 25 °C for 4 hours, 0.22 µm filter, read-out: solubilities of the antineoplastic agent
# Description: as §1, with “antineoplastic agent” for “antibiotic”, “4” for “8”
# The antineoplastic agent in the above homogeneous aqueous solution and filtrate was determined by high performance liquid chromatography (HPLC). As a result, the solubilities in Table 2 were obtained.
# [3] = Water-solubility of the antineoplastic agent alone or combined with β-CyD-G2-COONa or β-CyD (Example 1, HPLC); format: physicochemical; details: 6-O-(N-chloroacetylcarbamoyl)fumagillol in water, with β-CyD-G2-COONa or β-CyD 1:2 (mol ratio), lyophilized powder 100 mg + water 1 ml, alone: shaken at 25 °C for 4 hours, 0.22 µm filter, read-out: solubilities of the antineoplastic agent
# Description: The antineoplastic agent 6-O-(N-chloroacetylcarbamoyl)fumagillol (100 mg) was dissolved in ethanol (4 ml). […] The aqueous solution was added to the ethanol solution and mixed with it with stirring. The resulting solution was lyophilized in vacuo to give powder. Water (1 ml) was added to the powder (100 mg) to obtain a homogeneous aqueous solution, i.e., a composition of the present invention.
# On the other hand, the antineoplastic agent alone was added to water, and the mixture was vigorously shaken at 25 °C for 4 hours and filtered through a membrane filter of 0.22 µm.
# The antineoplastic agent in the above homogeneous aqueous solution and filtrate was determined by high performance liquid chromatography (HPLC). As a result, the solubilities in Table 1 were obtained.
# rats = experiment: Toxicity in rats, intravenous administration every day for 2 weeks (Experiment 3); format: in vivo
# Description: Four male rats were used. β-CyD-G2-COOH was dissolved in sterilized water. The solution was intravenously administered to rats in daily doses of 1 ml/kg, 3 ml/kg, and 10 ml/kg (containing β-CyD-G2-COOH in amounts of 100 mg/kg, 300 mg/kg, and 1000 mg/kg, respectively) every day for 2 weeks.
# As a control, the toxicity of β-CyD-G2 was studied according to the same manner.
# [4] = Hemolytic effect on rabbit erythrocytes (Experiment 1, Fig. 1); details: rabbit, erythrocytes, phosphate buffer, pH 7.4
# Description: (§4) To this was added sodium 6-O-cyclomaltoheptaosyl-(6→1)-α-D-glucosyl-(4→1)-O-α-D-glucuronate (β-CyD-G2-COONa) was added so that the concentration thereof became 1 to 40 mM. The mixture was shaken at 37°C for 30 minutes and then centrifuged to separate the supernatant. […] The amount of hemoglobin bursted in water instead of isotonic phosphate buffer was used as a standard (100%), and the relative ratio to it was indicated as a hemolytic ratio.
# (§5) Further, according to the same manner as that described above except using β-cyclodextrin (β-CyD) instead of β-CyD-G2-COONa, the hemolytic ratio was determined.
# (§6) (Control: β-cylodextrin 4 mM, 6-O-α-D-glucosyl-(1→4)-α-D-glucosyl-β-cyclodextrin 8 mM)
# [5] = cited from earlier work
# [6] = water
# Rabbit erythrocytes [7] = experiment: Hemolytic effect on rabbit erythrocytes (Experiment 1, Fig. 1); details: 0.25% rabbit erythrocyte suspension, 10 mM isotonic phosphate buffer (pH 7.4), 1 to 40 mM, 37°C, 30 minutes
# Description: as §4, §5, §6
# β-Glucuronidase = biological target: T1, β-Glucuronidase (Bos taurus, UniProt A3KMY8); experiment: Stability to enzymatic treatment with β-glucuronidase (Experiment 4, Fig. 6); format: in vitro ADME, Calf liver; details: 10 mM aqueous cyclodextrin, β-glucuronidase 700 unit/ml, 37°C, 0 to 120 minutes; compared with 6-O-α-maltosyl-β-cyclodextrin
# T1 construct: purchased; host or cells: calf liver (per earlier reading)
# T1 sequence (A3KMY8 1-652): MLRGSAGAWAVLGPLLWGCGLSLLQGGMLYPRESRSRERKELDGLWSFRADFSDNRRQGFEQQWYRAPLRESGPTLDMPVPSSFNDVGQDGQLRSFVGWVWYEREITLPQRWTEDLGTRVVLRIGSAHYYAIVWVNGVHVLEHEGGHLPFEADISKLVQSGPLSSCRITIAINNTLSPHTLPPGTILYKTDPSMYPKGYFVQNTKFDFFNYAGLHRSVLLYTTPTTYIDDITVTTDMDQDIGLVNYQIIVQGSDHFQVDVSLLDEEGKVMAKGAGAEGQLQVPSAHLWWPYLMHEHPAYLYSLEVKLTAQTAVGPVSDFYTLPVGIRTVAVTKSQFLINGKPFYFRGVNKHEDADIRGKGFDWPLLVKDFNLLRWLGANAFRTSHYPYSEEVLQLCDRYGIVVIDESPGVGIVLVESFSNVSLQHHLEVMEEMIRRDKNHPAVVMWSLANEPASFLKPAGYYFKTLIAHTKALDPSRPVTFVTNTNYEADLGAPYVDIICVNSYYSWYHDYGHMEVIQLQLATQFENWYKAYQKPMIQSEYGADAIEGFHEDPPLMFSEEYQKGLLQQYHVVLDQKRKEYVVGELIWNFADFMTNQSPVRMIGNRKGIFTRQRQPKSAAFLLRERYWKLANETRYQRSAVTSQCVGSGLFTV
# Description: (§2) As a control, 6-O-α-maltosyl-β-cyclodextrin was used. Test method: Each of prescribed amounts of the following enzymes was added to a 10 mM aqueous solution of cyclodextrin to be tested. The mixture was allowed to stand in a water bath at 37°C. 50 µl of each mixture was sampled, and the enzyme was inactivated by heating it at 100°C for 15 minutes, centrifuged at 15,000 rpm for 5 minutes, filtered through Millipore USY-1 (differential molecular weight: 10,000), diluted 10 times and subjected to HPLC analysis. HPLC analytic conditions: • Column; NH2P-50 (Asahipak) • Mobile phase; CH3CN:H2O=48:52 to which 0.005M PIC reagent was added. • Flow rate; 0.8 ml/minute • Detection; RI The ratio of the remaining cyclodextrin at 0 to 120 minutes was determined from the above HPLC analysis of each sample.
# (§3) Each unit is as described in the instruction book of the enzyme obtained from above market. Results: Changes of the ratio of remaining 6-O-α-D-glucuronyl(1→4)-α-D-glucosyl-β-cyclodextrin sodium salt (branched cyclodextrin-carboxylic acid salt) and 6-O-α-maltosyl-β-cyclodextrin (branched cyclodextrin) with the passage of time are shown in Figures 3 to 6. In the figures, black triangles represent the branched cyclodextrin-carboxylic acid salt, and black dots represent the branched cyclodextrin.
# Rabbit erythrocytes [8] = details: phosphate buffer, pH 7.4
# Description: as §4, §5, §6
# Human erythrocytes = experiment: Hemolytic effect on human erythrocytes (Experiment 2, Fig. 2); format: cell-based; details: 0.1M isotonic phosphate buffer (pH 7.4), 5 to 30 mM, 37°C, 30 minutes
# Description: Human erythrocytes were added to 0.1M isotonic phosphate buffer (pH 7.4) to prepare a 20% suspension. The 20% erythrocyte suspension (100 µl) was added to an isotonic buffer (4 ml) containing β-CyD-G2-COONa in a concentration of 5 to 30 mM.
# The results are in Figure 2 together with the above results for comparison.
# Glucoamylase = biological target: T2, Glucoamylase (Rhizopus oryzae, UniProt P07683); format: in vitro ADME, Rhizopus sp.; details: 10 mM aqueous cyclodextrin, glucoamylase 2 unit/ml, 37°C, 0 to 120 minutes; compared with 6-O-α-maltosyl-β-cyclodextrin
# T2 construct: purchased
# Description: as §2, §3
# [9] = Stability to acid: half-life in 0.1N HCl solution
# [10] = Water-solubility of the cyclodextrins themselves
# Pullulanase = biological target: T3, Pullulanase (Klebsiella pneumoniae, UniProt P07206); experiment: Stability to enzymatic treatment with pullulanase (Experiment 4, Fig. 5); format: in vitro ADME; details: 10 mM aqueous cyclodextrin, pullulanase 10 unit/ml, 37°C, 0 to 120 minutes; read-out: decomposed in the enzymatic treatment with pullulanase
# T3 construct: purchased
# T3 sequence (P07206 20-1090): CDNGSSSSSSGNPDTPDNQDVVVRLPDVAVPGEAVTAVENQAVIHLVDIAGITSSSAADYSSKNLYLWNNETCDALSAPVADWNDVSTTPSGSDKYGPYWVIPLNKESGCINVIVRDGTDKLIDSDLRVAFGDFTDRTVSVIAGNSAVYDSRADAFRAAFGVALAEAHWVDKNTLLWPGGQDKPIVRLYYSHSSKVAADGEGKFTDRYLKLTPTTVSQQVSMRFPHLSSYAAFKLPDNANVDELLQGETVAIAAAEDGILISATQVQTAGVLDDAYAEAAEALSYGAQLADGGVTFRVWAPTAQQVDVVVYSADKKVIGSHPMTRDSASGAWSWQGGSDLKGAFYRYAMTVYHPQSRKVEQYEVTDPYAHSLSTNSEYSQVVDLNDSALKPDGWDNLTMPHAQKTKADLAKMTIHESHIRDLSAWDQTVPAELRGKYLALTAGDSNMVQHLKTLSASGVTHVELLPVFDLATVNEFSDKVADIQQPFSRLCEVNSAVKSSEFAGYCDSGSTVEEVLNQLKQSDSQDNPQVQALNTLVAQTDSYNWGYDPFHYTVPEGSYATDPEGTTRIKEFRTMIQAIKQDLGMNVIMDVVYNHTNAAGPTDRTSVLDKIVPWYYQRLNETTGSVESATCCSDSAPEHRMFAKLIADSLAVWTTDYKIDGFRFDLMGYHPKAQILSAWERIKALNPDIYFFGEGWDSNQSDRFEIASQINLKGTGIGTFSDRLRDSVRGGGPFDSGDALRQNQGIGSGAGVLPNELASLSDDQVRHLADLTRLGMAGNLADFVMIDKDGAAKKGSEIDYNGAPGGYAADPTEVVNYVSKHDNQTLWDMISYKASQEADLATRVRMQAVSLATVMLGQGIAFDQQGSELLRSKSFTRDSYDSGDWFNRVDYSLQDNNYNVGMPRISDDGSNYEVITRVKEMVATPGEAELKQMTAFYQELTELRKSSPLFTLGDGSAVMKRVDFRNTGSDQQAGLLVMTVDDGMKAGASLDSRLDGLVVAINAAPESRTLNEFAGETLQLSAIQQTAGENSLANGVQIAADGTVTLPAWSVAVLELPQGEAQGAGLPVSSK
# Description: as §2, §3
# [11] = male rats, 100 mg/kg, 300 mg/kg and 1000 mg/kg every day for 2 weeks
# T2 sequence (P07683 26-604): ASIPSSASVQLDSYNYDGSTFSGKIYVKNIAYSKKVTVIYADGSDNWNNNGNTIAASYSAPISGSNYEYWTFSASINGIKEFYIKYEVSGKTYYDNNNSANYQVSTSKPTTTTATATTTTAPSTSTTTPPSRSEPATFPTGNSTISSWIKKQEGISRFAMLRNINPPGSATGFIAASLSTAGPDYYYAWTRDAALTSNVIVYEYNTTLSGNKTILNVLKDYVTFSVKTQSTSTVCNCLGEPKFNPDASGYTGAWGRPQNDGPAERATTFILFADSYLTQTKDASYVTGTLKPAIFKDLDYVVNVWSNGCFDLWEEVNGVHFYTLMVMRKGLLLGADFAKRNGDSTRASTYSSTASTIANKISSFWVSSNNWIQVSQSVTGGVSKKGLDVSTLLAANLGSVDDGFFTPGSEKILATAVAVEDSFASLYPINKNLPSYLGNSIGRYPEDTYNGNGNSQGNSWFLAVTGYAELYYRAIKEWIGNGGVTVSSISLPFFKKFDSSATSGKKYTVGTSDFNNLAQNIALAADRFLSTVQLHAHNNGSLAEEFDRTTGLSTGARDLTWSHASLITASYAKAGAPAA
molecule,measurement,setting,value
COC1C(OC(=O)NC(=O)CCl)CCC2(CO2)C1C1(C)OC1CC=C(C)C (centres unmarked) [Antineoplastic agent alone],solubility,[1],2.5 mg/mL
same,solubility,[2],1.8 mg/mL
same,solubility,[3],1.8 mg/mL
6-O-cyclomaltoheptaosyl-(6→1)-α-D-glucosyl-(4→1)-O-α-D-glucuronic acid [β-CyD-G2-COOH],Pathological and histological examination,rats; [11],no serious findings such as necrosis
same,death,rats; [11],No rats died
same,"general appearance, diet intake amount, body weight, urine sediments, hematological examination",rats; [11],No abnormality was observed
"OC[C@H]1O[C@@H]2O[C@H]3[C@H](O)[C@@H](O)[C@@H](O[C@H]4[C@H](O)[C@@H](O)[C@@H](O[C@H]5[C@H](O)[C@@H](O)[C@@H](O[C@H]6[C@H](O)[C@@H](O)[C@@H](O[C@H]7[C@H](O)[C@@H](O)[C@@H](O[C@H]8[C@H](O)[C@@H](O)[C@@H](O[C@H]1[C@H](O)[C@H]2O)O[C@@H]8CO)O[C@@H]7CO)O[C@@H]6CO)O[C@@H]5CO)O[C@@H]4CO)O[C@@H]3CO [β-CyD, β-cyclodextrin]",HC50,[4],4 mM
α-cyclodextrin [α-CyD],water-solubilities,[5]; water,about 15%
sodium 6-O-cyclomaltoheptaosyl-(6→1)-α-D-glucosyl-(4→1)-O-α-D-glucuronate [β-CyD-G2-COONa],solubility,[6],> 200 g/100 ml
same,"hemolytic effect (hemolytic ratio vs cyclodextrin concentration, Figure 1)",Rabbit erythrocytes [7],much less hemolytic effect than that of β-CyD
same,Half-life in 0.1N HCl solution at 60°C,,8 h
same,stability to the enzymatic treatment with β-glucuronidase,β-Glucuronidase,more stable
same,HC50,Rabbit erythrocytes [8],11 mM
same,"hemolytic effect (hemolytic ratio vs cyclodextrin concentration, Figure 2)",Human erythrocytes,"much less hemolytic effect than that of β-CyD, β-CyD-G1 or β-CyD-G2"
same,stability to the enzymatic treatment with glucoamylase,Glucoamylase,more stable
"OC[C@H]1O[C@H](O[C@H]2[C@H](O)[C@@H](O)[C@@H](OC[C@H]3O[C@@H]4O[C@H]5[C@H](O)[C@@H](O)[C@@H](O[C@H]6[C@H](O)[C@@H](O)[C@@H](O[C@H]7[C@H](O)[C@@H](O)[C@@H](O[C@H]8[C@H](O)[C@@H](O)[C@@H](O[C@H]9[C@H](O)[C@@H](O)[C@@H](O[C@H]%10[C@H](O)[C@@H](O)[C@@H](O[C@H]3[C@H](O)[C@H]4O)O[C@@H]%10CO)O[C@@H]9CO)O[C@@H]8CO)O[C@@H]7CO)O[C@@H]6CO)O[C@@H]5CO)O[C@@H]2CO)[C@H](O)[C@@H](O)[C@@H]1O [β-CyD-G2, 6-O-α-maltosyl-β-cyclodextrin]",water-solubility relative to that of β-cyclodextrin,[5]; stated as known,several tens of times that of β-cyclodextrin
same,HC50,[4],8 mM
same,Pathological and histological examination,"rats; rats, every day for 2 weeks, 300 mg/kg and 1000 mg/kg groups",renal tubule epithelium vacuolation and necrosis
same,Urine examination,"rats; rats, every day for 2 weeks, 1000 mg/kg group",occult blood and an increase in LDH and NAG
same,observed signs (general appearance),"rats; rats, every day for 2 weeks, groups of 300 mg/kg and 1000 mg/kg",Auricle flush and peripheral swelling in the extremities
same,half-life,[9],5 h
same,solubility,[10],1500 mg/mL
same,"metabolised at 2 h, 10000 µM",Pullulanase,~60%
